In article PMC7849821, “The deubiquitylase USP9X controls ribosomal stalling” (The Journal of Cell Biology, 2021):

Key:
[1] = test system: ZNF598 and MKRN2; experiment: Immunoblot of FT709 responsive markers in A549 and U2OS cells; format: cell-based; conditions: 10 µM
Description: (§1) Cultured cells were lysed for 10 min at 4°C in RIPA buffer (10 mM Tris-HCl, pH 7.5, 150 mM NaCl, 1% Triton X-100, 0.1% SDS, and 1% sodium deoxycholate) supplemented with mammalian protease inhibitor cocktail (Sigma-Aldrich). Proteins were resolved using SDS-PAGE (Invitrogen NuPage gel 4–12%), transferred to nitrocellulose membrane, blocked in 5% fat-free milk or 5% bovine serum albumin in TBS supplemented with Tween-20, and probed with primary antibodies overnight. Visualization and quantification of Western blots were performed using IRdye 800CW and 680LT coupled secondary antibodies and an Odyssey infrared scanner (LI-COR Biosciences).

[2] = test system: ZNF598; experiment: Immunoblot of ZNF598 in FT709-treated HCT116 cells; format: cell-based; conditions: 10 µM, 4 or 24 h
Description: as §1

[3] = test system: CEP55; experiment: MSD ELISA assay for CEP55 reduction in BxPC3 cells; format: cell-based; conditions: Homo sapiens, BXPC-3, BxPC3 pancreatic cancer cells, 6 h exposure, read-out: IC50 for modulation (reduction) of CEP55 expression
Description: BxPC3 cells were seeded in 96-well plates and exposed to FT709 (20 µM top concentration, 1:2 serial dilutions) for 6 h. Cell lysates were prepared in RIPA buffer and stored at −80°C until analysis. Samples were analyzed by an MSD ELISA assay (Pacific Biolabs) using a CEP55 antibody (Novux; 1:500 dilution in PBS) captured overnight at 4°C, 30 µl lysates per well, 30 µl of CEP55 antibody (CST; 81693) diluted 1:2,000 in 1% blocker A/PBS and 30 µl per well of a 1:4,000 diluted goat anti-rabbit sulfo-tag, 1% blocker A/PBS. Plates were read on a MSD Sector Imager 2400. Results were transformed as percentage DMSO controls and curves fitted using a nonlinear regression to determine the IC50. Results presented are based on duplicate values.

[4] = test system: HCT116 cells; experiment: SILAC-based proteome analysis of FT709-treated HCT116 cells; format: cell-based; conditions: 10 µM, 24 h
Description: HCT116 cells were grown in SILAC DMEM supplemented with 10% dialyzed FBS (Dundee Cell Products) at 37°C and 5% CO2. To generate light, medium, and heavy stable isotope-labeled cells, arginine- and lysine-free DMEM medium was supplemented with 200 mg/liter L-proline and either L-lysine (Lys0) together with L-arginine (Arg0; light), L-lysine-^2H4 (Lys4) with L-arginine-U-^13C6 (Arg6; medium), or L-lysine-U-^13C6-^15N2 (Lys8) with L-arginine-U-^13C6-^15N4 (Arg10; heavy) at final concentrations of 84 mg/liter for the arginine and 146 mg/liter for the lysine until fully metabolically labeled. […] Relative protein concentrations of the lysates were determined using a bicinchoninic acid assay (Thermo Fisher Scientific), and light-, medium-, and heavy-labeled lysates were combined in a 1:1:1 ratio.
Protein extracts (1.2–1.5 mg) containing SDS were reduced with 5 mM dithiothreitol, alkylated with 20 mM iodoacetamide, and then subjected to methanol/chloroform extraction. […] Peptide fractions were analyzed in technical replicates by nano-UPLC-MS/MS using a Dionex Ultimate 3000 nano UPLC with EASY spray column (75 µm × 500 mm, 2 µm particle size; Thermo Fisher Scientific) with a 60-min gradient of 2% acetonitrile/0.1% formic acid/5% DMSO to 35% acetonitrile/0.1% formic acid/5% DMSO at a flow rate of ∼250 nl/min. […]

[5] = target: USP15 (Homo sapiens, UniProt Q9Y4E8); experiment: DUB biochemical assay (Ub-rhodamine cleavage); conditions: Ub-rhodamine substrate, DUB panel Fig. S2 A
Description: (§2) The assay was performed in a final volume of 6 µl in assay buffer containing 20 mM Tris buffer, pH 8, 0.03% bovine γ-globulin, 0.01% Triton X-100, and 1 mM glutathione. Nanoliter quantities of 10-point, threefold serial dilutions in DMSO were predispensed into 1,536 assay plates for a final top concentration between […] and subsequent half-log dilutions. 2× DUB (0.025 nM final concentration) was added and preincubated for 30 min at room temperature. 2× ubiquitin (Ub)-rhodamine (25 nM final concentration) was added to initiate the reaction. Fluorescence readings (excitation: 485 nm, emission: 535 nm) were acquired over 12 min (Envision reader). The slope of the data from each point was used to determine IC50.
(§3) For all assays, data were reported as percent inhibition compared with control wells. IC50 values were determined by curve fitting of the standard four-parameter logistic fitting algorithm included in the Activity Base software package IDBS XE Designer Model205. Data were fitted using the Levenburg–Marquardt algorithm.

[6] = target: USP1 (Homo sapiens, UniProt O94782); experiment: DUB biochemical assay (Ub-rhodamine cleavage); conditions: Ub-rhodamine substrate, DUB panel Fig. S2 A
Description: as §2, §3

[7] = target: USP47 (Homo sapiens, UniProt Q96K76); experiment: DUB biochemical assay (Ub-rhodamine cleavage); conditions: Ub-rhodamine substrate, DUB panel Fig. S2 A
Description: as §2, §3

[8] = target: USP36 (Homo sapiens, UniProt Q9P275); experiment: DUB biochemical assay (Ub-rhodamine cleavage); conditions: Ub-rhodamine substrate, DUB panel Fig. S2 A
Description: as §2, §3

[9] = target: USP33 (Homo sapiens, UniProt Q8TEY7); experiment: DUB biochemical assay (Ub-rhodamine cleavage); conditions: Ub-rhodamine substrate, DUB panel Fig. S2 A
Description: as §2, §3

[10] = target: USP4 (Homo sapiens, UniProt Q13107); experiment: DUB biochemical assay (Ub-rhodamine cleavage); conditions: Ub-rhodamine substrate, DUB panel Fig. S2 A
Description: as §2, §3

[11] = target: USP10 (Homo sapiens, UniProt Q14694); experiment: DUB biochemical assay (Ub-rhodamine cleavage); conditions: Ub-rhodamine substrate, DUB panel Fig. S2 A
Description: as §2, §3

[12] = target: USP28 (Homo sapiens, UniProt Q96RU2); experiment: DUB biochemical assay (Ub-rhodamine cleavage); conditions: Ub-rhodamine substrate, DUB panel Fig. S2 A
Description: as §2, §3

[13] = target: USP25 (Homo sapiens, UniProt Q9UHP3); experiment: DUB biochemical assay (Ub-rhodamine cleavage); conditions: Ub-rhodamine substrate, DUB panel Fig. S2 A
Description: as §2, §3

[14] = target: USP7 (Homo sapiens, UniProt Q93009); experiment: DUB biochemical assay (Ub-rhodamine cleavage); conditions: Ub-rhodamine substrate, DUB panel Fig. S2 A
Description: as §2, §3

[15] = target: USP12 (Homo sapiens, UniProt O75317); experiment: DUB biochemical assay (Ub-rhodamine cleavage); conditions: Ub-rhodamine substrate, DUB panel Fig. S2 A
Description: as §2, §3

[16] = target: USP5 (Homo sapiens, UniProt P45974); experiment: DUB biochemical assay (Ub-rhodamine cleavage); conditions: Ub-rhodamine substrate, DUB panel Fig. S2 A
Description: as §2, §3

[17] = target: USP18 (Homo sapiens, UniProt Q9UMW8); experiment: DUB biochemical assay (Ub-rhodamine cleavage); conditions: Ub-rhodamine substrate, DUB panel Fig. S2 A
Description: as §2, §3

[18] = target: USP37 (Homo sapiens, UniProt Q86T82); experiment: DUB biochemical assay (Ub-rhodamine cleavage); conditions: Ub-rhodamine substrate, DUB panel Fig. S2 A
Description: as §2, §3

[19] = target: USP24 (Homo sapiens, UniProt Q9UPU5); experiment: DUB biochemical assay (Ub-rhodamine cleavage); conditions: Ub-rhodamine substrate, DUB panel Fig. S2 A
Description: as §2, §3

[20] = target: USP22 (Homo sapiens, UniProt Q9UPT9); experiment: DUB biochemical assay (Ub-rhodamine cleavage); conditions: Ub-rhodamine substrate, DUB panel Fig. S2 A
Description: as §2, §3

[21] = target: USP2 (Homo sapiens, UniProt O75604); experiment: DUB biochemical assay (Ub-rhodamine cleavage); conditions: Ub-rhodamine substrate, DUB panel Fig. S2 A
Description: as §2, §3

[22] = target: USP11 (Homo sapiens, UniProt P51784); experiment: DUB biochemical assay (Ub-rhodamine cleavage); conditions: Ub-rhodamine substrate, DUB panel Fig. S2 A
Description: as §2, §3

[23] = target: USP8 (Homo sapiens, UniProt P40818); experiment: DUB biochemical assay (Ub-rhodamine cleavage); conditions: Ub-rhodamine substrate, DUB panel Fig. S2 A
Description: as §2, §3

[24] = target: USP13 (Homo sapiens, UniProt Q92995); experiment: DUB biochemical assay (Ub-rhodamine cleavage); conditions: Ub-rhodamine substrate, DUB panel Fig. S2 A
Description: as §2, §3

[25] = test system: ZNF598, MKRN1 and MKRN2; experiment: Immunoblot of ZNF598 and Makorins in FT709-treated (KAAA)21 WT cells; format: cell-based; conditions: (KAAA)21 WT HEK293 cells, indicated concentrations for 48 h
Description: as §1

[26] = test system: HEK293 Flp-In T-Rex GFP-P2A-(KAAA)21-P2A-RFP WT cells; experiment: Fluorescent ribosomal stalling reporter, FACS RFP:GFP ratio; format: cell-based; conditions: 10 µM for 72 h
Excerpt: The HEK293 cells used in this study (HEK293-Flp-In TREX GFP-P2A-[K^AAA]21 -P2A-RFP) have been engineered to express a reporter system for terminal ribosomal stalling ([Juszkiewicz and Hegde, 2017]). The reporter cassette contains GFP (N-terminal) and RFP (C-terminal) separated by a FLAG-tagged stalling reporter (SR) incorporating a polyA stretch of twenty-one codons (K^AAA)21 (Fig. 5 B). This is flanked by viral P2A sequences, at which ribosomes skip formation of a peptide bond, without interrupting translation elongation. Consequently, unimpaired translation generates 3 proteins (GFP, FLAG-SR, RFP) in equal amounts. Stalling at the FLAG-SR aborts translation before RFP synthesis, leading to a substoichiometric RFP:GFP ratio. Failure to effectively respond to stalled ribosomes allows eventual read-through and a consequent rise in the RFP:GFP ratio that can be assessed by fluorescence-activated cell sorting (Fig. 5 B, schematic diagram; [Juszkiewicz and Hegde, 2017]). […] We also analyzed three of the cell populations treated with individual gRNAs as represented in Fig. 5 A that show varying effectiveness for USP9X depletion. […] We propose that USP9X inhibition may promote read-through by a combined effect on each of these RING E3 ligases linked to the ribosomal quality control pathway. […]

USP4, sequence (Q13107 whole entry, species assumed): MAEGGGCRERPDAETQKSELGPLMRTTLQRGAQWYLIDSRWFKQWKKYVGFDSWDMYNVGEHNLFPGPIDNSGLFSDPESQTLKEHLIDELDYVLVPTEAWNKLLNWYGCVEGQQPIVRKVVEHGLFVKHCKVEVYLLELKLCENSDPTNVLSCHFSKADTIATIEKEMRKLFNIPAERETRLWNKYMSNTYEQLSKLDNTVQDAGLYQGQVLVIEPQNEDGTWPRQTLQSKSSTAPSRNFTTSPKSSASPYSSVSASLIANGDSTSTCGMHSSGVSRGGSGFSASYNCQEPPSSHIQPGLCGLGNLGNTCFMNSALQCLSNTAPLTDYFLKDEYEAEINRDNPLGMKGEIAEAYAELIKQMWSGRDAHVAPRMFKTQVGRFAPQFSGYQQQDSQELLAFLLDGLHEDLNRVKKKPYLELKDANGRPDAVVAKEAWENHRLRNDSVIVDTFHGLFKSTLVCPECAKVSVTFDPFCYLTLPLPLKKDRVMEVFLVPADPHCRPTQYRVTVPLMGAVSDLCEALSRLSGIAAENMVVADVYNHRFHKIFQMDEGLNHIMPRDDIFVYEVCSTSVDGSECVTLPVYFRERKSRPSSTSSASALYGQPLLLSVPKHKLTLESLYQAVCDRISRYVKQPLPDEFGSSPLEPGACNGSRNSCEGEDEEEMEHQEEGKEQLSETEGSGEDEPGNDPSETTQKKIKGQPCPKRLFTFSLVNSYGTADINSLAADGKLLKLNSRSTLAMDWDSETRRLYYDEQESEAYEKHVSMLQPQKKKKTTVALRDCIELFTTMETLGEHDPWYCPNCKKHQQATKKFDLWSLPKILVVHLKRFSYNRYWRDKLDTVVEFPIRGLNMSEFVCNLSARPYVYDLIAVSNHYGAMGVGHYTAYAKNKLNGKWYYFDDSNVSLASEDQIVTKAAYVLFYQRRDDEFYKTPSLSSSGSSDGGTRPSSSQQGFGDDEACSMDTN
USP15, sequence (Q9Y4E8 whole entry, species assumed): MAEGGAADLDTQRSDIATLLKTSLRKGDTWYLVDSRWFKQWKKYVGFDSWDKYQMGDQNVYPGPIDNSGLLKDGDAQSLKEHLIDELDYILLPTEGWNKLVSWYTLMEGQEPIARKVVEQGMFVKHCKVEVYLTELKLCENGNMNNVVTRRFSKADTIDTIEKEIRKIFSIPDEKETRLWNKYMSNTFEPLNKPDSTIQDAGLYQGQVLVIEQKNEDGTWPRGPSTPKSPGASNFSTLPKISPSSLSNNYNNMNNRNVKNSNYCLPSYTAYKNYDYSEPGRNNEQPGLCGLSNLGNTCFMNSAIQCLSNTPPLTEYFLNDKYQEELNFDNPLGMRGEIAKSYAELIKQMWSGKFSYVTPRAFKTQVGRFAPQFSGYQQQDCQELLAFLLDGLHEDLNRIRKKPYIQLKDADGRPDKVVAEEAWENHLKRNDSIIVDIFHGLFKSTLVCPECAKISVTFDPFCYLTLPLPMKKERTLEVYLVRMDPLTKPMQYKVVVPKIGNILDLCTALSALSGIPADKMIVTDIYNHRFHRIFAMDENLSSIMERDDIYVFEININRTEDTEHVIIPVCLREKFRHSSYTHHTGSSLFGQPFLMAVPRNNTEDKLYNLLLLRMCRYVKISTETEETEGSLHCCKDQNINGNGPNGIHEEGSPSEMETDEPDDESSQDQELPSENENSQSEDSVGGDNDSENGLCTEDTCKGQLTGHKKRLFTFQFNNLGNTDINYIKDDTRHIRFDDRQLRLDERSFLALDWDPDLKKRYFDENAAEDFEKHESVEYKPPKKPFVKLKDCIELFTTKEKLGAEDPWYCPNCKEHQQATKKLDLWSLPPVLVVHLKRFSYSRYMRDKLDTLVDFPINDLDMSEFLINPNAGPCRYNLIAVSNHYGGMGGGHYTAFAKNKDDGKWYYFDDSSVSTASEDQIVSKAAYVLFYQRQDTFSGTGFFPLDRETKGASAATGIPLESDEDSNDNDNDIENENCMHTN
USP22, sequence (Q9UPT9 whole entry, species assumed): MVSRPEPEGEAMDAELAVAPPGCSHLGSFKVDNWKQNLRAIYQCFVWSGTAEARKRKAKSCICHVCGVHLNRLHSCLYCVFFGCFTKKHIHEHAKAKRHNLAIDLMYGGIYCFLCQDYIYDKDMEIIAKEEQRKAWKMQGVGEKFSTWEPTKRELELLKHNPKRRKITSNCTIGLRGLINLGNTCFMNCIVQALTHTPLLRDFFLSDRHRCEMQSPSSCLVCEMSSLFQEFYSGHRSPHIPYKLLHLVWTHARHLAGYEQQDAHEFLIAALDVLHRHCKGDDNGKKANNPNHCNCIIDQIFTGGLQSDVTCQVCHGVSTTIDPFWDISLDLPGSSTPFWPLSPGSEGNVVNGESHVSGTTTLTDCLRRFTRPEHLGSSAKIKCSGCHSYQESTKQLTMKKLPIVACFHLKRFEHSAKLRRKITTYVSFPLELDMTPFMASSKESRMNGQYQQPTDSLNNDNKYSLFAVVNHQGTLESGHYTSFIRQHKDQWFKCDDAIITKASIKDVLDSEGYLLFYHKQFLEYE
USP22, sequence (Q14CW9 whole entry partner, species assumed): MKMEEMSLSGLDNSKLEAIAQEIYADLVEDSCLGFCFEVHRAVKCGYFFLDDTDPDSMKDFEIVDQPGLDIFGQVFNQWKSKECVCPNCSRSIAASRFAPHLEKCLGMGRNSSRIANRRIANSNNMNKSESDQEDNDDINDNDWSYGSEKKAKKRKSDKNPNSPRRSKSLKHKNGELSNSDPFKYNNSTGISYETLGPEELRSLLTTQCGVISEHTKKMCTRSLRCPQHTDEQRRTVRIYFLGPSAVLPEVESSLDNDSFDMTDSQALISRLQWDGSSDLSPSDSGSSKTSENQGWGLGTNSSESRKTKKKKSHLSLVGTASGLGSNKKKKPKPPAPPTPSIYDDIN
USP22, sequence (Q9NPA8 whole entry partner, species assumed): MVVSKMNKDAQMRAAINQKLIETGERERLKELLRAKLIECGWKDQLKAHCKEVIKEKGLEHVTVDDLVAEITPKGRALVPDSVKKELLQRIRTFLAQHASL
USP25, sequence (Q9UHP3 whole entry, species assumed): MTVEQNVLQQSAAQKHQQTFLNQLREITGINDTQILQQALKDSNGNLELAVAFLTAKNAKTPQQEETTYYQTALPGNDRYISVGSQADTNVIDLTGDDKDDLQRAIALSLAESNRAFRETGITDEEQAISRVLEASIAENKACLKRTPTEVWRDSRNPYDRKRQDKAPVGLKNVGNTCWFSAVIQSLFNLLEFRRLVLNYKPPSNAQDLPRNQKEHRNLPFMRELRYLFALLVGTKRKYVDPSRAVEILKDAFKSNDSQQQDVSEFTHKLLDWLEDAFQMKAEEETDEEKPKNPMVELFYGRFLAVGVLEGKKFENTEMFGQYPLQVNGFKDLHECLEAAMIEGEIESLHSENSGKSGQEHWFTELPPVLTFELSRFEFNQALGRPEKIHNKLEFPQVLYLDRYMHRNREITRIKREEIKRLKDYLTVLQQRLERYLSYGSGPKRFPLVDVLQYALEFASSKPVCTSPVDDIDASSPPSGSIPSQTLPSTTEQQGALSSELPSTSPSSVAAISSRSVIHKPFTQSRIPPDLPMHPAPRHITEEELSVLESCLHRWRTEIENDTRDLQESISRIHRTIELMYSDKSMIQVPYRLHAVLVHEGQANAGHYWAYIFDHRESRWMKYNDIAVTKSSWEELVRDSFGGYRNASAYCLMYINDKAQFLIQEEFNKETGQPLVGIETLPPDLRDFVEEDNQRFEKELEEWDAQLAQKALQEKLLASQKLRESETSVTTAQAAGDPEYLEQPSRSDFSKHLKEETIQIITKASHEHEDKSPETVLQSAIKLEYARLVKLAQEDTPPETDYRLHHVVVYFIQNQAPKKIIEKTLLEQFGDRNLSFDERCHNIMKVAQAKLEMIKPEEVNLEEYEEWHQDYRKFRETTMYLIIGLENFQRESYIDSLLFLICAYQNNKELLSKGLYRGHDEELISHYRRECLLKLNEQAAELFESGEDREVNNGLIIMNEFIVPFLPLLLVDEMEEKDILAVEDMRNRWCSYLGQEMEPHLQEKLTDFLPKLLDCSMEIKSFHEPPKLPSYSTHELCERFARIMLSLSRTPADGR
USP2, sequence (O75604 whole entry, species assumed): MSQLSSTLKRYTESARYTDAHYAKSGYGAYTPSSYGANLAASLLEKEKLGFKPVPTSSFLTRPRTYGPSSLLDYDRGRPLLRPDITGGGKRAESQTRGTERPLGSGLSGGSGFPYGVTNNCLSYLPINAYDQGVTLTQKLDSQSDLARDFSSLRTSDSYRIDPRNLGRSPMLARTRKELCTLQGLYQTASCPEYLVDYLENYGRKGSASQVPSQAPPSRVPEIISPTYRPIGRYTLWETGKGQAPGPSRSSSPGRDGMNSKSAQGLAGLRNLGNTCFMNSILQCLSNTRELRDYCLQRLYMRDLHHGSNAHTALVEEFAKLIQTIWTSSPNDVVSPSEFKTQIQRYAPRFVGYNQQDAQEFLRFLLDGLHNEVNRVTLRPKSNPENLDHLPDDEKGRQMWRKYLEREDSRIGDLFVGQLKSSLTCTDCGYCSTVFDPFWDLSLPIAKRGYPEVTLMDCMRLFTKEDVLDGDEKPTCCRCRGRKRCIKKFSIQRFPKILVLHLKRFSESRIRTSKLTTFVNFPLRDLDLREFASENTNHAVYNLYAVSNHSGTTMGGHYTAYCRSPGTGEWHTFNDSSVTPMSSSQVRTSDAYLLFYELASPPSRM
USP18, sequence (Q9UMW8 whole entry, species assumed): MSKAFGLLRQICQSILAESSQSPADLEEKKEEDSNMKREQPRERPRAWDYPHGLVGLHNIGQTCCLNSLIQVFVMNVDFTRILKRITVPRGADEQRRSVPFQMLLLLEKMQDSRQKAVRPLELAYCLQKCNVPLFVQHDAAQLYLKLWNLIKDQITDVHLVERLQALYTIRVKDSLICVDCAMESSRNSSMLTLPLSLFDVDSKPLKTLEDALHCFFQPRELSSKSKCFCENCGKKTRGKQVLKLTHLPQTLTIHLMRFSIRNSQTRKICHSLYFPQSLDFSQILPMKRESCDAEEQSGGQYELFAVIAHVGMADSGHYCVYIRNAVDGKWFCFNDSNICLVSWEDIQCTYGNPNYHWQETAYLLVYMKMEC

Cc1nc2c(C(O)C(=O)N3CC4=C(C3)CN(S(=O)(=O)c3cnc5c(c3)OCCO5)C4)cccc2o1 (centres unmarked) [FT709]
FT709-dependent loss of ZNF598 versus MKRN2 [1]: loss of ZNF598 is minor compared with MKRN2
ZNF598 protein level [2]: reduction of ZNF598
IC50 [3]: 0.131 µM
Protein abundance change in SILAC proteomic datasets [4]: de-enrichment of ZNF598 and MKRN2
IC50 [5]: > 26.7 µM
IC50 [6]: > 25.8 µM
IC50 [7]: > 33.3 µM
IC50 [8]: > 26.7 µM
IC50 [9]: > 26.7 µM
IC50 [10]: > 33.3 µM
IC50 [11]: > 33.3 µM
IC50 [12]: > 26.7 µM
IC50 [13]: > 26.7 µM
IC50 [14]: > 25.8 µM
IC50 [15]: > 33.3 µM
IC50 [16]: > 33.3 µM
IC50 [17]: > 27.9 µM
IC50 [18]: > 33.3 µM
IC50 [19]: > 26.7 µM
IC50 [20]: > 26.7 µM
IC50 [21]: > 26.7 µM
IC50 [22]: > 33.3 µM
IC50 [23]: > 25 µM
IC50 [24]: > 26.7 µM
ZNF598, MKRN1 and MKRN2 protein levels [25]: smaller reduction in ZNF598 levels but was again accompanied by parallel reductions in MKRN1 and 2
polyA read-through (RFP:GFP ratio) [26]: recapitulate polyA read-through
